For the experiment, the system named is α-amylase (BUZYME 2508). The experiment in a line: α-amylase activity test with RED-STARCH substrate in paper mill process water. Type of experiment: biochemical. The following applies: for effect on the α-amylase activity (in words): high demand solution containing α-amylase, NaOCl at between 10% to 50% of actual chlorine demand; for α-amylase activity: 15 minutes at 40° C. before substrate, 30 minutes at 40° C., percentage of the maximum reading. Here is the method: In the experiments described below, amylase activity was measured using a synthetic α-amylase substrate, “RED-STARCH” obtained from MEGAZYME® (Ireland), and a test procedure developed that allows the use of this substrate in complex paper mill process waters including samples containing cellulose.
The indicated test procedure developed for testing paper mill samples for α-amylase activity includes preparation of the substrate by adding 1 g of powdered RED-STARCH substrate to 50 mL of 0.5 M KCl solution ([…]), and warming up to 60° C. whilst shaking vigorously until dissolved. The prepared substrate can be used fresh or stored under refrigeration until used. A concentrated assay buffer solution was prepared as a 300 mM CaCl2.2H2O solution (39.2 g/l), which for use, is diluted 200 times in the assay. Assays can be performed on any liquid sample recovered in a paper mill. Samples with high turbidity may interfere with the final measurement step. Accordingly, samples containing fiber can be filtered through a paper filter, and liquid from high consistency samples can be recovered by squeezing liquid from the sample. To perform the assay on a sample, 30 μl assay buffer, 3 ml RED-STARCH substrate solution, and a 3 ml test sample solution can be added to a 35 ml test vial, and mix and incubate the vial and contents at constant temperature (35-40° C.) for 30 minutes. The reaction is ended by adding 10 ml ethanol (denatured) or methanol and shaking vigorously, and then allowing the vial and its contents to stand for 2 minutes before filtering the contents through a paper filter. High molecular weight material can be removed by the filtering. Using a 10 ml syringe, the filtered liquid is passed through a 0.22 or 0.45 μm disposable filter cartridge. The liquid that passes through the cartridge is introduced into a spectrophotometer cuvette, and the absorbance (OD) of the reaction solution, and a separate reaction blank, are measured using a spectrophotometer. The reaction blank is prepared by adding 10 ml ethanol or methanol to a test vial first, then add 30 μl assay buffer, 3 ml red starch substrate solution, and a 3 ml test solution, and prepare the samples for measurement as above. The spectrophotometer can be a Hach DR/890 Colorimeter (Hach Company, Loveland Colo.), or other spectrophotometer device. Absorbance can be measured as optical density (OD). On incubation of the RED-STARCH substrate with α-amylase, the substrate can be depolymerized to produce low molecular weight dyed fragments which remain in solution on addition of alcohol to the reaction mixture. The measured value of OD is directly proportional to the α-amylase activity in the test sample. Most spectrophotometers have a scale that reads in OD (absorbance) units, which is a logarithmic scale. A user edited program can be entered into the DR/890 device, including choosing a wavelength of 510 nm at which absorbance is measured, using water as a blank (OD=0), and preparing a maximum α-amylase activity sample by adding a small amount of BUZYME® 2508 (Buckman Laboratories, Belgium) to water and using this in the assay (max. OD that can be measured is approximately 25). The range that is obtained with this program is very large and can suffice for all paper mill samples. Using this testing procedure, paper mill samples typically have absorbance values in the range of 1-7. If a sample gives a maximum reading, it can be diluted in water to determine a more precise value. Results can be represented as the actual number or as a percentage of the maximum reading of the procedure which is 25. The results in Table 1 below show results for α-amylase activity as a percentage of the maximum reading.
In the tests conducted, process water was used that was taken from a coated paper machine pulper fill water tank that was not being treated with an oxidizing program. First, the actual chlorine and monochloramine (NH2Cl) demands of this process water were determined (Table 1). […]

Where [1] appears, read: oxidant added at 10.0% of demand.
The mark [2] stands for this setting: oxidant added at 25.0% of demand.
[3] abbreviates: oxidant added at 50% of demand (NaOCl printed 50/0%).
[4] abbreviates: oxidant added at 100.0% of demand.

As for `NCl` [NH2Cl, monochloramine], the “effect on the α-amylase activity (in words)” value is reported as “no significant effect”. The α-amylase activity under setting [1] is 100.0%. Under setting [2], this molecule showed a α-amylase activity of 98.5%. The α-amylase activity under setting [3] was found to be 99.3%. Also, the α-amylase activity under setting [4] was found to be 99.1%.
In the case of `OCl` [NaOCl, sodium hypochlorite], the “effect on the α-amylase activity (in words)” value is “effective to reduce the α-amylase activity”. For the same molecule, under “in direct tests”, the “activity to inactivate amylases (in words)” value was “very efficient”. For the same molecule, the α-amylase activity under setting [1] was 99.2%. The molecule also showed a α-amylase activity under setting [2] of 87.4%. The molecule also came in with a α-amylase activity under setting [3] of 43.8%. Also, the α-amylase activity under setting [4] worked out at 2.1%.

Source of the values: US9347179B2, “Methods of preserving starch in pulp and controlling calcium precipitation and/or scaling” (Buckman Laboratories International, Inc., priority 2012, dated 2016).
